Reference: ChEMBL document CHEMBL1201862, “PubChem BioAssay data set” (2004)
Active and inactive are the calls of the source.

Experiments:
[1] = inhibition of ADAM10 peptide cleavage – biochemical, FRET peptide substrate, recombinant human ADAM10, selectivity assay for ADAM17 exosite inhibitor project, dose response (AID 743259);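 further: ADAM10 enzyme cleaving a FRET peptide substrate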
[2] = target: Disintegrin and metalloproteinase domain-containing protein 17 (Homo sapiens, UniProt P78536); experiment: exosite inhibitors of ADAM17, dose response, biochemical (AID 743260)
[3] = target: T1, Oxysterols receptor LXR-beta (Homo sapiens, UniProt P55055); experiment: LXR agonists, Gal4 luciferase reporter, dose response, counter-screen for ssDAF-12 agonist project, cell-based, luminescence, HEK293, S. stercoralis campaign (AID 720737); type: functional; details: read-out: IC50 (the source's name)
T1 sequence (P55055 whole entry): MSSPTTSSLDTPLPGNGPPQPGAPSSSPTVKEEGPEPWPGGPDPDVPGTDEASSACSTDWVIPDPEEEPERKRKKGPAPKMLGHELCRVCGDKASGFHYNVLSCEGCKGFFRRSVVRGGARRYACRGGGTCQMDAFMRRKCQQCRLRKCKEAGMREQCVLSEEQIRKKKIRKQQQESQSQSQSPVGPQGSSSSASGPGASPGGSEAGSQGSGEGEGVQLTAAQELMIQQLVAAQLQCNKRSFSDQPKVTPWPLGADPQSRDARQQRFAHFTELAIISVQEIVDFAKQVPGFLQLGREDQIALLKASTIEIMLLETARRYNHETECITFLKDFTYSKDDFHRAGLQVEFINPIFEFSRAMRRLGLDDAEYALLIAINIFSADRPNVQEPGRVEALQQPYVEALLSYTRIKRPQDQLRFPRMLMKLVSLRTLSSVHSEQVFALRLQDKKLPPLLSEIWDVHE

[4] = Luminescence-based cell-based high throughput dose response assay to identify activators of the DAF-12 from the parasite S. stercoralis (ssDAF-12).; type: functional
[5] = Trypanosoma cruzi growth suppression in host cells – NIH3T3 host cells, beta-gal luminescence, confirmation (AID 2044); type: functional, cell-based;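 further: intracellular parasites grown in NIH/3T3 mouse fibroblasts as host cells; luminescent beta-galactosidase reporter signal from transgenic T. cruzi replicating inside host cells; inhibitors lower the luminescence signal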
Beta-galactosidase = Beta-galactosidase (Escherichia coli, UniProt Q8VNN2); experiment: detection-enzyme interference by beta-gal modulators – biochemical, E. coli enzyme, set 3, artefact control for CCR6 antagonist project, dose response (AID 504712); type: functional
cells [6] = experiment: cells
[7] = NIH3T3 cell viability loss – ATP luminescence, mouse fibroblasts, counter-screen, dose response (AID 2010); type: functional, cell-based;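 further: cells exposed to compound for about 90 hours before reading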
[8] = target: T1, Oxysterols receptor LXR-beta; type: functional, cell-based
cells [9] = experiment: cells; remark: listed apart in the source
Prothrombin = Prothrombin (Homo sapiens, UniProt P00734); experiment: Thrombin 1536 HTS Dose Response Confirmation. [Related pubchem assays: 1046 (Thrombin 1536 HTS; hits were confirmed in this assay)]; type: functional
[10] = decrease of insulin promoter-GFP reporter – imaging, high-content screening, mouse beta cells (AID 1628); type: functional; details: MIN6
[11] = reduction of Shn3 3'UTR-driven luciferase in osteoblasts – cell-based, Clone20 osteoblasts, firefly luciferase, cherry-picked, dose response (AID 624132); type: functional;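 further: firefly luciferase luminescence from reporter carrying the Shn3 3'UTR in osteoblasts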
[12] = loss of viability in HepG2 cells – cell-based, CellTiter-Glo, cherry-picked, cytotoxicity control for Shn3 inhibitor project, dose response (AID 624134); type: functional
[13] = MIN6 cell viability loss – mouse insulinoma, cytotoxicity control, dose response (AID 2122); type: functional;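 further: confirmatory high-throughput counterscreen run to flag cytotoxic compounds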
[14] = Shn3 3'UTR reporter signal decrease – cell-based, Clone20 osteoblasts, firefly luciferase, cherry-pick, set 2, Schnurri-3 inhibitor project, dose response (AID 720490); type: functional;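 further: actives lower the luminescence signal as inhibitors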
[15] = non-specific 3'UTR reporter inhibition in Clone20-Shn3RL – cell-based, Renilla luciferase, cherry-picked, counter-screen for Shn3 inhibitor project, dose response (AID 624133); type: functional

Chain of Disintegrin and metalloproteinase domain-containing protein 17 (P78536 whole entry, the tested form may be a part): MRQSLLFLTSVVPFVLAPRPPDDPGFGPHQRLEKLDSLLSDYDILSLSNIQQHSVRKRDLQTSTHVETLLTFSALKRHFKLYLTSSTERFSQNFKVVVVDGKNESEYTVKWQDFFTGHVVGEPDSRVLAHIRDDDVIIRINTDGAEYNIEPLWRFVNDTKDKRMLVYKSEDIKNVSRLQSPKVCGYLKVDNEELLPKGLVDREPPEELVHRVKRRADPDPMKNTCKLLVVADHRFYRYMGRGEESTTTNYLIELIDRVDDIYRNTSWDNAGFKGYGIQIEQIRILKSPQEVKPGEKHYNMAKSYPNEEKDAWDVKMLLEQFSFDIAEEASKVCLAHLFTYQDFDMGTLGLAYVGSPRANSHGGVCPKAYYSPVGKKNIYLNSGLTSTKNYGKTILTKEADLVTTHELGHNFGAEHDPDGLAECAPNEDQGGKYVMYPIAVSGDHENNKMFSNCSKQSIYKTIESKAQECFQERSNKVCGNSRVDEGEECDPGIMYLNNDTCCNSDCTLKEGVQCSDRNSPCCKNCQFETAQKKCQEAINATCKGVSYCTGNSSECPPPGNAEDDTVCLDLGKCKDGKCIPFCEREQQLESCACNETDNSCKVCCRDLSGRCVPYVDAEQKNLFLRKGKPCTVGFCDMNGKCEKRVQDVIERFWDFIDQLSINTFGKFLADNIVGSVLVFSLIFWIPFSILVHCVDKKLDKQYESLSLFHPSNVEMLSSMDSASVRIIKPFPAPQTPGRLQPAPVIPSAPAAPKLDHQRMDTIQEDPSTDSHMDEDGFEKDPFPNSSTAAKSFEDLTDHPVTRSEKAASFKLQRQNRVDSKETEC
Chain of Beta-galactosidase (Q8VNN2 whole entry): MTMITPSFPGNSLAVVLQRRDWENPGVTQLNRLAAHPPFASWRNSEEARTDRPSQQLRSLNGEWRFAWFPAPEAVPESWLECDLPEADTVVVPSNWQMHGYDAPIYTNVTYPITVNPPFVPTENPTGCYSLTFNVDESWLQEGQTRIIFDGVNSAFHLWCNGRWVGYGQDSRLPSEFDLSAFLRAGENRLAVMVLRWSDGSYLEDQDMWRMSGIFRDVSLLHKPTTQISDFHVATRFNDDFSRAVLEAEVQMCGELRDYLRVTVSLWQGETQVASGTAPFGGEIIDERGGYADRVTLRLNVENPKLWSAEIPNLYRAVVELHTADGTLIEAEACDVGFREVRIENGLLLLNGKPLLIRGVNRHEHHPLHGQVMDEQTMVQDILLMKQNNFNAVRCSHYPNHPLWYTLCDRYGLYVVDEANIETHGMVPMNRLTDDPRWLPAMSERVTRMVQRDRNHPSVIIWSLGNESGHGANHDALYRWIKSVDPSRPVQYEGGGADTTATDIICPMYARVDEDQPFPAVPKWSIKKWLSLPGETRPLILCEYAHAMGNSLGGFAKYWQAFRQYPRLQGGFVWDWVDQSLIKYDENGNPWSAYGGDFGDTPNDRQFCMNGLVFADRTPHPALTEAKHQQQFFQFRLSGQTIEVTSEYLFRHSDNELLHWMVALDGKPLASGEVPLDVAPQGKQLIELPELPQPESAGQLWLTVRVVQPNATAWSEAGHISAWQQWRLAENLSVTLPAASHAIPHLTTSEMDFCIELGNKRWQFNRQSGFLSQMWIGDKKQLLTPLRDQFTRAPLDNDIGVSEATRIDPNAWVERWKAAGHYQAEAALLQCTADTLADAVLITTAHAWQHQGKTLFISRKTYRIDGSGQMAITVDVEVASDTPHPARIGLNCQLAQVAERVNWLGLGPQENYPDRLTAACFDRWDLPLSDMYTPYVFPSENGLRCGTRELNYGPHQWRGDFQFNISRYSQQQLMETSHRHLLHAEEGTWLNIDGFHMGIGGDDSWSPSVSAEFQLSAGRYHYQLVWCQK

With `CCOC(=O)N1CCN(C(=O)C[C@H]2C[C@@]3(C(=O)OC)C(=C[C@H](C(C)C)O[C@@H]3C3CC3)N(Cc3ccc(Cl)cc3Cl)C2=O)CC1` the IC50 [1] was 16.4 µM (inactive) and the IC50 [2] was > 69.5 µM (inactive).
For `O=C(Nc1ccc2c(c1)OCCO2)Nc1ccc2c(c1)OCO2`, the EC50 [3] was > 67.6 µM (inactive) and the IC50 [4] was > 67.6 µM (inactive).
For `C/C(CC1CC2=C(CC1(C)C)C(C)(C)CCC2)=N\NC(N)=S` (centres undefined), the EC50 [5] was < 0.1 µM (active), the IC50 (Beta-galactosidase) was > 66.6 µM (inactive) and the EC50 (cells [6]) was 0.139 µM (active). For the same molecule, the EC50 [7] was > 60 µM (not active).
In the case of `COc1ccccc1-c1nc(-c2ccc(Br)o2)no1`, the EC50 [8] is reported as > 67.5 µM (inactive), the EC50 [3] is reported as > 67.5 µM (inactive) and the EC50 (cells [9]) is reported as > 67.5 µM (inactive). For the same molecule, the IC50 [4] was > 67.5 µM (inactive).
For `CCOC(=O)c1ccc(NC(=O)C2CCCN(S(=O)(=O)c3ccc(F)cc3)C2)cc1` (centres undefined), the IC50 [1] was > 7.72 µM (active) and the IC50 [2] was > 69.5 µM (inactive).
In the case of `COc1ccc2c(=O)c(-c3nc(C)cs3)coc2c1`, the EC50 [8] is reported as > 67.5 µM (inactive) and the EC50 (cells [9]) is reported as > 67.5 µM (inactive).
In the case of `C#CCOCCOCCOCCNc1nc(N2CCN(C(=O)Cn3cc(CC(C)O)nn3)CC2)nc(N2CCN(C(=O)[C@H](C)n3cc(CCCN=C(N)N)nn3)CC2)n1` (some centres undefined), the IC50 (Prothrombin) is reported as 6.8 µM (active).
For `CCN(CC)c1ccc(NC(=O)CN2C(=O)CSc3ncccc32)c(C)c1`, the IC50 [10] was 1.33 µM (active), the AC50 [11] was 1.78 µM (active) and the AC50 [12] was 31.9 µM (active). The IC50 [13] was 0.713 µM (active), the AC50 [14] was 2.17 µM (active) and the AC50 [15] was 10.2 µM (active).
For `Nc1nc(CN2CCCCC2)cs1`, the IC50 (Prothrombin) was > 50 µM (not active).
